Species on record: Rattus norvegicus
Assay: DrugMatrix - Regimen: Daily Repeat
Format: toxicity, organism-based, Sprague-Dawley
Parameters: regimen Daily Repeat, gender Male, age 6-8 weeks
Conditions: in vivo, po, 1500 mg/kg, route oral GAVAGE, dose level High, vehicle 100 % WATER; for ABSOLUTE BASOPHIL / ABSOLUTE EOSINOPHIL / ABSOLUTE LYMPHOCYTE / ABSOLUTE MONOCYTE / ABSOLUTE SEGMENTED NEUTROPHIL / BASOPHIL / EOSINOPHIL / ERYTHROCYTE COUNT / HEMATOCRIT / HEMOGLOBIN / LEUKOCYTE COUNT / LYMPHOCYTE / MEAN CORPUSCULAR HEMOGLOBIN / MEAN CORPUSCULAR HEMOGLOBIN CONCENTRATION / MEAN CORPUSCULAR VOLUME / MONOCYTE / NEUTROPHIL / NUCLEATED RED BLOOD CELLS / PLATELET COUNT: tissue Blood; for ALANINE AMINOTRANSFERASE / ALBUMIN / ALKALINE PHOSPHATASE / ASPARTATE AMINOTRANSFERASE / BLOOD UREA NITROGEN / CARBON DIOXIDE / CHLORIDE / CHOLESTEROL / CREATINE PHOSPHOKINASE / CREATININE / GLUCOSE / LACTATE DEHYDROGENASE / LIPASE / PHOSPHORUS / POTASSIUM / SODIUM / TOTAL BILIRUBIN / TOTAL PROTEIN / URIC ACID: tissue Plasma

CNCCc1ccccn1 [BETAHISTINE]
ABSOLUTE BASOPHIL (72 h, time 3 day): 0 CELLS/uL | ABSOLUTE EOSINOPHIL (72 h, time 3 day): 56.67 CELLS/uL | ABSOLUTE LYMPHOCYTE (72 h, time 3 day): 8977.33 CELLS/uL | ABSOLUTE MONOCYTE (72 h, time 3 day): 168 CELLS/uL | ABSOLUTE SEGMENTED NEUTROPHIL (72 h, time 3 day): 798 CELLS/uL | BASOPHIL (72 h, time 3 day): 0% | EOSINOPHIL (72 h, time 3 day): 0.67% | ERYTHROCYTE COUNT (72 h, time 3 day): 5.37 x10E6/uL | HEMATOCRIT (72 h, time 3 day): 33.67% | HEMOGLOBIN (72 h, time 3 day): 12.53 G/DL | LEUKOCYTE COUNT (72 h, time 3 day): 10 x10E3/uL | LYMPHOCYTE (72 h, time 3 day): 89.67% | MEAN CORPUSCULAR HEMOGLOBIN (72 h, time 3 day): 23.37 pg | MEAN CORPUSCULAR HEMOGLOBIN CONCENTRATION (72 h, time 3 day): 37.27 G/DL | MEAN CORPUSCULAR VOLUME (72 h, time 3 day): 62.73 fL | MONOCYTE (72 h, time 3 day): 1.67% | NEUTROPHIL (72 h, time 3 day): 8% | NUCLEATED RED BLOOD CELLS (72 h, time 3 day): 0 /100WBC | PLATELET COUNT (72 h, time 3 day): 1427.33 x10E3/uL | ALANINE AMINOTRANSFERASE (72 h, time 3 day): 50 u/L | ALBUMIN (72 h, time 3 day): 4.53 G/DL | ALKALINE PHOSPHATASE (72 h, time 3 day): 288.67 u/L | ASPARTATE AMINOTRANSFERASE (72 h, time 3 day): 71.67 u/L | BLOOD UREA NITROGEN (72 h, time 3 day): 14.33 mg/dL | CARBON DIOXIDE (72 h, time 3 day): 28.33 mmol/L | CHLORIDE (72 h, time 3 day): 105.67 MEQ/L | CHOLESTEROL (72 h, time 3 day): 76.33 mg/dL | CREATINE PHOSPHOKINASE (72 h, time 3 day): 148.67 u/L | CREATININE (72 h, time 3 day): 0.19 mg/dL | GLUCOSE (72 h, time 3 day): 141 mg/dL | LACTATE DEHYDROGENASE (72 h, time 3 day): 118 u/L | LIPASE (72 h, time 3 day): 15.67 u/L | PHOSPHORUS (72 h, time 3 day): 12.33 mg/dL | POTASSIUM (72 h, time 3 day): 6.21 MEQ/L | SODIUM (72 h, time 3 day): 150.8 MEQ/L | TOTAL BILIRUBIN (72 h, time 3 day): 0.2 mg/dL | TOTAL PROTEIN (72 h, time 3 day): 6.07 G/DL | URIC ACID (72 h, time 3 day): 0.87 mg/dL | ABSOLUTE BASOPHIL (120 h, time 5 day): 0 CELLS/uL | ABSOLUTE EOSINOPHIL (120 h, time 5 day): 0 CELLS/uL | ABSOLUTE LYMPHOCYTE (120 h, time 5 day): 10659 CELLS/uL | ABSOLUTE MONOCYTE (120 h, time 5 day): 37.33 CELLS/uL | ABSOLUTE SEGMENTED NEUTROPHIL (120 h, time 5 day): 870.33 CELLS/uL | BASOPHIL (120 h, time 5 day): 0% | EOSINOPHIL (120 h, time 5 day): 0% | ERYTHROCYTE COUNT (120 h, time 5 day): 5.91 x10E6/uL | HEMATOCRIT (120 h, time 5 day): 36.13% | HEMOGLOBIN (120 h, time 5 day): 13.33 G/DL | LEUKOCYTE COUNT (120 h, time 5 day): 11.57 x10E3/uL | LYMPHOCYTE (120 h, time 5 day): 92% | MEAN CORPUSCULAR HEMOGLOBIN (120 h, time 5 day): 22.63 pg | MEAN CORPUSCULAR HEMOGLOBIN CONCENTRATION (120 h, time 5 day): 36.93 G/DL | MEAN CORPUSCULAR VOLUME (120 h, time 5 day): 61.27 fL | MONOCYTE (120 h, time 5 day): 0.33% | NEUTROPHIL (120 h, time 5 day): 7.67% | NUCLEATED RED BLOOD CELLS (120 h, time 5 day): 0 /100WBC | PLATELET COUNT (120 h, time 5 day): 1404.67 x10E3/uL | ALANINE AMINOTRANSFERASE (120 h, time 5 day): 60.67 u/L | ALBUMIN (120 h, time 5 day): 4.2 G/DL | ALKALINE PHOSPHATASE (120 h, time 5 day): 406.33 u/L | ASPARTATE AMINOTRANSFERASE (120 h, time 5 day): 75.67 u/L | BLOOD UREA NITROGEN (120 h, time 5 day): 14 mg/dL | CARBON DIOXIDE (120 h, time 5 day): 25.33 mmol/L | CHLORIDE (120 h, time 5 day): 105.33 MEQ/L | CHOLESTEROL (120 h, time 5 day): 59 mg/dL | CREATINE PHOSPHOKINASE (120 h, time 5 day): 153 u/L | CREATININE (120 h, time 5 day): 0.19 mg/dL | GLUCOSE (120 h, time 5 day): 171 mg/dL | LACTATE DEHYDROGENASE (120 h, time 5 day): 64 u/L | LIPASE (120 h, time 5 day): 8 u/L | PHOSPHORUS (120 h, time 5 day): 13.97 mg/dL | POTASSIUM (120 h, time 5 day): 5.7 MEQ/L | SODIUM (120 h, time 5 day): 146.6 MEQ/L | TOTAL BILIRUBIN (120 h, time 5 day): 0.27 mg/dL | TOTAL PROTEIN (120 h, time 5 day): 5.9 G/DL | URIC ACID (120 h, time 5 day): 2.07 mg/dL
